# Data from ChEMBL document CHEMBL5346930, “Discovery of novel N-benzylarylamide-dithiocarbamate based derivatives as dual inhibitors of tubulin polymerization and LSD1 that inhibit gastric cancers” (Eur J Med Chem, 2023).
# pIC50: −log10 of the molar value. Calls of active or inactive are those of the source. The calls are words filed in the database; no cut-off is given here.
# Tests used:
# [1] = system: HGC-27; assay: Antiproliferative activity against human HGC-27 cells assessed as inhibition of cell growth incubated for 48 hrs by MTT assay; type: functional, cell-based; settings: HGC-27, 48 h
# [2] = system: MGC-803; assay: Induction of morphological changes in human MGC-803 cells assessed as increase in proportion of dead cells at 0 to 24 nmol/L incubated for 48 hrs by calcein-AM/PI staining based analysis; type: functional, cell-based; settings: dose 0-24 nmol/L
# [3] = system: MGC-803; assay: Induction of cell cycle arrest in human MGC-803 cells assessed as reduction in cyclin B1 protein expression incubated for 48 hrs by Western blot analysis; type: functional, cell-based; settings: dose 0-24 nmol/L
# [4] = system: GES1; assay: Cytotoxicity against human GES1 cells assessed as reduction in cell viability at 0 to 30 nM incubated for 48 hrs by MTT assay; type: toxicity, cell-based; settings: ges1, 48 h, 0.03 µM, dose 0-30 nM
# [5] = system: MGC-803; assay: Induction of cell cycle arrest in human MGC-803 cells assessed as accumulation of cells at G2/M phase incubated for 48 hrs; type: functional, cell-based; settings: dose 0-24 nmol/L
# [6] = target: T1, Tubulin (Homo sapiens) (UniProt P68371+Q9H4B7+P0DPH7+P68366+Q13509+Q71U36+P04350+Q3ZCM7+P07437+P68363+Q9BQE3+Q6PEY2+Q13885+Q9BVA1+Q9BUF5); assay: Inhibition of tubulin polymerization in human SGC-7901 cells assessed as destruction of microtubule network incubated for 48 hrs by immunofluorescence staining based fluorescence microscopic analysis; type: cell-based; settings: dose 0-30 nmol/L
# [7] = system: MGC-803; assay: Induction of morphological changes in human MGC-803 cells assessed as reduction in cell density at 0 to 24 nmol/L incubated for 48 hrs by bright field microscopic analysis; type: functional, cell-based; settings: dose 0-24 nmol/L
# [8] = system: Huh-7; assay: Antiproliferative activity against human Huh-7 cells assessed as inhibition of cell growth incubated for 48 hrs by MTT assay; type: functional, cell-based; settings: Huh-7, 48 h
# [9] = Toxicity in BALB/c nude mouse xenografted with human MGC-803 cells assessed as reduction in body weight at 25 mg/kg/day, ip administered every day for 21 days; type: organism-based; settings: in vivo, 504 h, time 21 day
# [10] = system: MGC-803; assay: Induction of cell cycle arrest in human MGC-803 cells assessed as downregulation of CDC2 protein expression incubated for 48 hrs by Western blot analysis; type: functional, cell-based; settings: dose 0-24 nmol/L
# [11] = system: MGC-803; assay: Inhibition of cell migration in human MGC-803 cells assessed as reduction in rate of wound healing at 4 nmol/L measured after 0 to 48 hrs; type: functional, cell-based; settings: time 0-48 hrs
# [12] = system: SGC-7901; assay: Induction of morphological changes in human SGC-7901 cells assessed as varied size of nucleus at 0 to 30 nmol/L incubated for 48 hrs by DAPI staining based analysis; type: functional, cell-based; settings: dose 0-30 nmol/L
# [13] = system: SMMC-7721; assay: Antiproliferative activity against human SMMC-7721 cells assessed as inhibition of cell growth incubated for 48 hrs by MTT assay; type: functional, cell-based; settings: SMMC-7721, 48 h
# [14] = system: MGC-803; assay: Induction of apoptosis in human MGC-803 cells assessed as activation of caspase-7 at 0 to 24 nmol/L incubated for 48 hrs by Western blot analysis; type: functional, cell-based; settings: dose 0-24 nmol/L
# [15] = system: MGC-803; assay: Antitumor activity against human MGC-803 cells xenografted in BALB/c nude mouse assessed as reduction in tumor weight at 25 mg/kg/day, ip administered every day for 21 days; type: functional, organism-based; settings: time 21.0 day
# [16] = system: MGC-803; assay: Induction of cell cycle arrest in human MGC-803 cells assessed as increase in p-Histone H3 protein expression incubated for 48 hrs by Western blot analysis; type: functional, cell-based; settings: dose 0-24 nmol/L
# [17] = system: SGC-7901; assay: Induction of cell cycle arrest in human SGC-7901 cells assessed as reduction in CDC2 phosphorylation at Thr161 residue at 0 to 30 nmol/L incubated for 48 hrs by Western blot analysis; type: functional, cell-based; settings: dose 0-30 nmol/L
# [18] = target: T1, Tubulin (Homo sapiens); assay: Inhibition of tubulin polymerization in human MGC-803 cells assessed as destruction of microtubule network incubated for 48 hrs by immunofluorescence staining based fluorescence microscopic analysis; type: cell-based; settings: dose 0-24 nmol/L
# [19] = system: MGC-803; assay: Induction of apoptosis in human MGC-803 cells assessed as total apoptotic cells at 24 nmol/L incubated for 48 hrs by Annexin-FITC/PI staining based flow cytometry analysis (reference value: 10.9%); type: functional
# [20] = system: MGC-803; assay: Induction of cell cycle arrest in human MGC-803 cells assessed as downregulation of Wee1 protein expression incubated for 48 hrs by Western blot analysis; type: functional, cell-based; settings: dose 0-24 nmol/L
# [21] = system: SGC-7901; assay: Induction of morphological changes in human SGC-7901 cells assessed as appearance of broken nucleus at 30 nM incubated for 48 hrs by DAPI staining based analysis; type: functional, cell-based
# [22] = system: SGC-7901; assay: Induction of apoptosis in human SGC-7901 cells assessed as downregulation of Mcl-1 protein expression incubated for 48 hrs by Western blot analysis; type: functional, cell-based; settings: dose 0-30 nmol/L
# [23] = system: MGC-803; assay: Antiproliferative activity against human MGC-803 cells assessed as inhibition of cell growth incubated for 48 hrs by MTT assay
# [24] = system: SGC-7901; assay: Induction of morphological changes in human SGC-7901 cells assessed as reduction in cell density at 0 to 30 nmol/L incubated for 48 hrs by bright field microscopic analysis; type: functional, cell-based; settings: dose 0-30 nmol/L
# [25] = system: SGC-7901; assay: Induction of cell cycle arrest in human SGC-7901 cells assessed as increase in p-Histone H3 protein expression incubated for 48 hrs by Western blot analysis; type: functional, cell-based; settings: dose 0-30 nmol/L
# [26] = system: MGC-803; assay: Antitumor activity against human MGC-803 cells xenografted in BALB/c nude mouse assessed as tumor growth inhibition at 25 mg/kg/day, ip administered every day for 21 days; type: functional, organism-based; settings: time 21.0 day
# [27] = system: SGC-7901; assay: Induction of apoptosis in human SGC-7901 cells assessed as increase in cleaved PARP level at 0 to 30 nmol/L incubated for 48 hrs by Western blot analysis; type: functional, cell-based; settings: dose 0-30 nmol/L
# [28] = Nephrotoxicity in BALB/c nude mouse xenografted with human MGC-803 cells assessed as effect on BUN level at 25 mg/kg/day, ip administered every day for 21 days; type: toxicity, organism-based; settings: in vivo, 504 h, time 21 day
# [29] = system: SGC-7901; assay: Induction of cell cycle arrest in human SGC-7901 cells assessed as downregulation of Wee1 protein expression incubated for 48 hrs by Western blot analysis; type: functional, cell-based; settings: dose 0-30 nmol/L
# [30] = Hepatotoxicity in BALB/c nude mouse xenografted with human MGC-803 cells assessed as effect on AST level at 25 mg/kg/day, ip administered every day for 21 days; type: toxicity, organism-based; settings: in vivo, 504 h, time 21 day
# [31] = system: SGC-7901; assay: Induction of cell cycle arrest in human SGC-7901 cells assessed as accumulation of cells at G2/M phase at 30 nmol/L incubated for 48 hrs (reference value: 32%); type: functional
# [32] = system: SGC-7901; assay: Induction of morphological changes in human SGC-7901 cells assessed as increase in proportion of dead cells at 0 to 30 nmol/L incubated for 48 hrs by calcein-AM/PI staining based analysis; type: functional, cell-based; settings: dose 0-30 nmol/L
# [33] = target: T2, Lysine-specific histone demethylase 1A (Homo sapiens, UniProt O60341); assay: Inhibition of LSD1 in human SGC-7901 cells assessed as increase in H3K4me1 expression level at 0 to 30 nmol/L incubated for 48 hrs by Western blot analysis; type: cell-based; settings: dose 0-30 nmol/L
# [34] = target: T2, Lysine-specific histone demethylase 1A; assay: Inhibition of LSD1 in human SGC-7901 cells assessed as increase in H3K4me2 expression level at 0 to 30 nmol/L incubated for 48 hrs by Western blot analysis; type: cell-based; settings: dose 0-30 nmol/L
# [35] = system: MGC-803; assay: Inhibition of cell migration in human MGC-803 cells assessed as reduction in number of cells crossing membrane at 4 nmol/L measured after 48 hrs by transwell assay; type: functional, cell-based
structure (smiles),measurement,setting,value
COc1ccc(CN(C(=O)CSC(=S)N2CCN(c3ccc(N)cc3)CC2)c2cc(OC)c(OC)c(OC)c2)cc1O,pIC50,[1],7.61
same,Activity,[2],Active
same,Activity,[3],Dose-Dependent Effect
same,Activity,[4],Non-Toxic
same,Activity,[5],Dose-Dependent Effect
same,inhibition,[6],Dose-Dependent Effect
same,Activity,[7],Active
same,pIC50,[8],7.32
same,Activity,[9],Non-Toxic
same,Activity,[10],Dose-Dependent Effect
same,inhibition,[11],Active
same,Activity,[12],Active
same,pIC50,[13],7.57
same,Activity,[14],Active
same,Activity,[15],Active
same,Activity,[16],Dose-Dependent Effect
same,Activity,[17],Active
same,inhibition,[18],Dose-Dependent Effect
same,Activity,[19],85.5%
same,Activity,[20],Dose-Dependent Effect
same,Activity,[21],Active
same,Activity,[22],Dose-Dependent Effect
same,Activity,[23],Dose-Dependent Effect
same,Activity,[24],Active
same,Activity,[25],Dose-Dependent Effect
same,Activity,[26],Active
same,Activity,[27],Active
same,Activity,[28],Non-Toxic
same,Activity,[29],Dose-Dependent Effect
same,Activity,[30],Non-Toxic
same,Activity,[31],74%
same,Activity,[32],Active
same,inhibition,[33],Active
same,inhibition,[34],Active
same,inhibition,[35],Active
